“Also recorded” adds a separate entry of the source. Like-named read-outs stand apart in the source and are kept apart here. Bridge positions count the residues as written; N and C are the ends. Square brackets hold non-standard residues; d marks the D form. Peptide text beside a SMILES is read from it. hArg = N=C(N)NCCCC[C@H](N)C(=O)O
Columns and labels:
PCSK9Δhelix [1] = target: T1, PCSK9Δhelix (Homo sapiens, UniProt Q8NBP7); assay: Surface plasmon resonance biosensor-based affinity analysis (Example 4); format: binding; conditions: Table 7, Target PCSK9Δhelix, SPR at 20° C.; read-out: Kd
T1 construct: Human PCSK9 construct M1-Q692 with an engineered TEV site (residue deletion Y166, R167); made in house; host or cells: CHO

PCSK9Δhelix [2] = target: T1, PCSK9Δhelix; assay: SPR affinity measurements of peptide binding (Example 8); conditions: for Kd: Table 10, binding to PCSK9Δhelix
Protocol: A Biacore™ T100 or Biacore™ 8K was adjusted to 20° C. The system was primed into assay buffer which consisted of 25 mM HEPES, pH 7.5, 0.15 M NaCl, 0.005% (v/v) Tween® 20, 0.2 mM tris(2-carboxyethyl)phosphine and optionally contained 0.1% (w/v) carboxymethylated dextran (average MW 10 kDa) and 0.2% (w/v) PEG (average MW 3450 Da) in order to reduce potential non-specific binding. Peptides were assayed by capturing fresh PCSK9 or PCSK9Δhelix after each binding regeneration cycle by exploiting a histidine tag and an NTA-sensor chip. The surface was charged with (His)8-tagged PCSK9 (approximately 800 RU captured). […] Compound 19 and Compound 20 were assayed in six serial two-fold dilutions from 100 nM to 3.1 nM. All peptides were analyzed in duplicate by serial injection (50 μL/min for 1 min) of peptide dilution from low to high concentration. The surface was then stripped of target by injecting 0.5 M EDTA, pH 8.0. This sequence was repeated for each peptide binding cycle and blank control cycles.
All SPR data was recorded in duplicate for five, or more serial dilutions, except for the two fusion peptides, which produced extremely low fitting error. Multicycle data (i.e. separate curves for each concentration) and single cycle data (i.e. single curve with serial injection of each concentration) were double referenced and fitted to an interaction model using BIAevaluation software. Peptide binding to PCSK9 produced deviations from a simple 1:1 binding interaction model that required application of a two-state model for determination of Kd while interactions with PCSK9Δhelix conformed well to simple 1:1 binding. Kinetic curvature was poorly defined for rapidly dissociating peptides and in these cases Kd was estimated from a steady-state dose response plot. Kd values were reported with associated standard error, a measure of confidence in that parameter value.

PCSK9Δhelix [3] = target: T1, PCSK9Δhelix; assay: PCSK9Δhelix/Ab20 TR-FRET binding assay
PCSK9 [4] = target: T2, PCSK9 (Homo sapiens, UniProt Q8NBP7); assay: PCSK9/EGF(A) TR-FRET binding assay
His-EGF(A)-Fc = His-EGF(A)-Fc TR-FRET counterscreen
[5] = target: T3, PCSK9-R167A:R215A:R218A (PCSK9-AAA) (Homo sapiens, UniProt Q8NBP7, R167A/R215A/R218A); assay: FXIa cleavage assay of the P′ helix of PCSK9-AAA; format: biochemical; conditions: immunoblot with anti-N-terminal peptide antibody
T3 construct: made in house; host or cells: CHO (transient)
Protocol: The PCSK9-AAA mutant (2.6 μM) was incubated with 50 nM FXIa (Haematologic Technologies) in Tris buffer (50 mM Tris, 150 mM NaCl, 4 mM CaCl2, pH 8.0) at room temperature for the indicated time periods. […] After SDS-PAGE of the samples, proteins were transferred to a nitrocellulose membrane using iBlot (Invitrogen). Proteins were then probed with a polyclonal rabbit antibody (1:3000) raised against the PCSK9 N-terminal peptide (^153[…]^168 (SEQ ID NO: 5)), followed with HRP-conjugated donkey anti-rabbit antibody (1:5000, GE Healthcare) using iBind (Invitrogen). PCSK9 signals were detected by ECL (GE Healthcare) and visualized by autoradiography.
Proteins were then probed with a polyclonal rabbit antibody (1:3000) raised against the PCSK9 N-terminal peptide (^153[…]^168 (SEQ ID NO: 5)), followed with HRP-conjugated donkey anti-rabbit antibody (1:5000, GE Healthcare) using iBind (Invitrogen). PCSK9 signals were detected by ECL (GE Healthcare) and visualized by autoradiography.

PCSK9 [6] = target: T2, PCSK9; assay: PCSK9/LDLR-Fc TR-FRET assay (LDLR assay); format: binding; conditions: Table 11, LDLR-Fc, average ±S.D. of three experiments
Protocol: In black 1536-well assay plates (MaKO, Aurora® Microplates, Whitefish, Mont.), 40 nL of peptide in DMSO were preincubated with 2 μL His-tagged PCSK9 plus anti-His-allophycocyanin in assay buffer (50 mM Tris-HCl, pH 7.5, 150 mM NaCl, 2 mM CaCl2, 0.01% Tween®-20, 0.1% bovine gamma globulins, and protease inhibitor cocktail) for 30 min. Then 2 μL of Fc-tagged ligand and anti-Fc-europium in assay buffer were added and allowed to incubate for 2 h. The PCSK9 and ligand conditions for each assay are as follows: 10 nM C-terminal (His)8-tagged PCSK9 (“(His)8” disclosed as SEQ ID NO: 304) and 12 nM EGF(A)-Fc for the EGF(A) assay, 10 nM C-terminal (His)8-tagged PCSK9 (“(His)8” disclosed as SEQ ID NO: 304) and 2.5 nM LDLR-Fc for the LDLR assay, 1.25 nM C-terminal (His)8-tagged PCSK9Δhelix (“(His)8” disclosed as SEQ ID NO: 304) and 0.75 nM Ab20 for the Ab20 assay, and 2 nM His-EGF(A)-Fc alone for the counterscreen. In all assays, anti-His-allophycocyanin and anti-Fc-europium were used at 20 nM and 2 nM, respectively. Fluorescence was measured with excitation at 340 nm and emission at 671 nm and 618 nm. The TR-FRET ratio was calculated as fluorescence at 671 nm/fluorescence at 618 nm. The ratios were normalized to controls and plotted against peptide concentration to determine IC50 values (Screener Analyzer, Genedata, Basel, CH). The peptides were evaluated in three separate experiments per assay with 10-point titrations and n=2 per concentration. The values presented are the average ±S.D. of three independent experiments.

[7] = TR-FRET, Example 7, read-out: PCSK9Δhelix/Ab20 IC50
[8] = Table 10, average ±S.D. of three experiments, read-out: Ab20 IC50
[9] = TR-FRET, Example 7, read-out: PCSK9/EGF(A) IC50
[10] = TR-FRET, Table 8E, additional compounds, read-out: PCSK9Δhelix/Ab20 IC50
[11] = Table 11, average ±S.D. of three experiments, read-out: Ab20 IC50
[12] = TR-FRET, Table 8E, additional compounds, read-out: PCSK9/EGF(A) IC50
[13] = Table 11, average ±S.D. of three experiments, read-out: EGF(A) IC50
[14] = TR-FRET counterscreen, Table 8E, additional compounds

Compound | Kd (PCSK9Δhelix [2]) [µM] | IC50 (PCSK9Δhelix [3]; [7]) [µM] | IC50 (PCSK9Δhelix [3]; [8]) [µM] | IC50 (PCSK9 [4]; [9]) [µM] | IC50 (His-EGF(A)-Fc; counterscreen, Example 7) [µM] | IC50 (PCSK9 [6]) [µM] | IC50 (PCSK9Δhelix [3]; [10]) [µM] | IC50 (PCSK9Δhelix [3]; [11]) [µM] | IC50 (PCSK9 [4]; [12]) [µM] | IC50 (PCSK9 [4]; [13]) [µM] | IC50 (His-EGF(A)-Fc; [14]) [µM] | other results
Ac-LMPWNLVRIGLLR-NH2 [Compound 50] | 0.47 | 2.66 | 3.6 ± 0.2 | > 50 | > 50 |  |  |  |  |  |  | Kd (PCSK9Δhelix [1]): 1.6 µM
Ac-MPWNLVRIGLLR-NH2 [Compound 51] | 1.4 | 4.69 | 6.6 ± 0.3 | > 50 | > 50 |  |  |  |  |  |  | Kd (PCSK9Δhelix [1]): 2.7 µM
CC[C@H](C)[C@@H]1NC(=O)[C@H](CCCNC(=N)N)NC(=O)[C@H](CCC(N)=O)NC(=O)[C@H](CC(C)C)NC(=O)[C@H](CC(N)=O)NC(=O)[C@H](Cc2c[nH]c3ccccc23)NC(=O)[C@@H]2CCCN2C(=O)[C@H]([C@@H](C)CC)NC(=O)[C@H](Cc2ccccc2)NC(=O)[C@@H](NC(=O)CNC(=O)[C@H](CO)NC(C)=O)CSSC[C@@H](C(N)=O)NC(=O)[C@H](CC(C)C)NC(=O)[C@H](CC(C)C)NC(=O)CNC1=O [Compound 29] (Ac-SGCFIPWNLQRIGLLC-NH2; disulfide 3-16) |  |  |  |  |  |  |  |  |  |  |  | IC50 (PCSK9Δhelix [3]; TR-FRET, Table 8D, disulfide-cyclized extension peptides, read-out: PCSK9Δhelix/Ab20 IC50): 1.9 µM; IC50 (PCSK9 [4]; TR-FRET, Table 8D, disulfide-cyclized extension peptides, read-out: PCSK9/EGF(A) IC50): > 50 µM; effect on FXIa-mediated cleavage of the P′ helix of PCSK9-AAA [5]: accelerated the cleavage reaction; also recorded: able to increase the FXIa-mediated cleavage; also recorded: strongly accelerated the cleavage; IC50 (His-EGF(A)-Fc; TR-FRET counterscreen, Table 8D, * = some inhibition at highest concentrations, not sufficient to fit an IC50): > 50 µM
EGFA-Fc: Fc fusion protein of the EGFA domain of LDLR |  |  |  |  |  |  |  |  |  |  |  | effect on FXIa-mediated cleavage of the P′ helix of PCSK9-AAA [5]: largely prevented cleavage
Ac-DLMPWNLVRIGLLR-NH2 [Compound 35] | 1.38 | 4.8 | 7.9 ± 0.1 | > 50 | > 50 |  |  |  |  |  |  | 
CC[C@H](C)[C@H](NC(=O)[C@H](CCCCNC(=N)N)NC(=O)[C@@H](NC(=O)[C@H](CC(C)C)NC(=O)[C@H](CC(N)=O)NC(=O)[C@H](Cc1c[nH]c2ccccc12)NC(=O)CNC(=O)[C@@H]1CCCN1C(=O)[C@H](Cc1ccc(O)cc1)NC(=O)[C@H](CO)NC(=O)[C@H](CCC(=O)O)NC(C)=O)C(C)C)C(=O)NCC(=O)N[C@@H](CC(C)C)C(=O)N[C@@H](CC(C)C)C(=O)N[C@@H](CCCNC(=N)N)C(N)=O [Compound 231] (Ac-ESYPGWNLV[hArg]IGLLR-NH2) |  |  |  |  |  | > 50 | 17 | 1.49 ± 0.1 | 1.6 | 15.8 ± 0.1 | ≥ 50 | 
Ac-WNLVRIGLLR-NH2 [Compound 53] | 14 | 33.1 | 52.4 ± 3.4 | > 50 | > 50 |  |  |  |  |  |  | Kd (PCSK9Δhelix [1]): 33.8 µM; reduction of binding affinity (PCSK9Δhelix [2]; Table 10, elimination of Pro4): 10 fold
CC[C@H](C)[C@H](NC(=O)[C@H](CCCCNC(=N)N)NC(=O)[C@@H](NC(=O)[C@H](CC(C)C)NC(=O)[C@H](CC(N)=O)NC(=O)[C@H](Cc1c[nH]c2ccccc12)NC(=O)CNC(=O)[C@@H]1CCCN1C(=O)[C@H](Cc1ccc(O)cc1)NC(=O)[C@H](CO)NC(=O)[C@H](CC(=O)O)NC(C)=O)C(C)C)C(=O)NCC(=O)N[C@@H](CC(C)C)C(=O)N[C@@H](CC(C)C)C(=O)N[C@@H](CCCNC(=N)N)C(N)=O [Compound 230] (Ac-DSYPGWNLV[hArg]IGLLR-NH2) |  |  |  |  |  | > 50 | 24 | 2.42 ± 0.2 | 2.3 | 24.2 ± 0.8 | ≥ 50 | 
CC[C@H](C)[C@H](NC(=O)[C@H](CCCCNC(=N)N)NC(=O)[C@@H](NC(=O)[C@H](CC(C)C)NC(=O)[C@H](CC(N)=O)NC(=O)[C@H](Cc1c[nH]c2ccccc12)NC(C)=O)C(C)C)C(=O)NCC(=O)N[C@@H](CC(C)C)C(=O)N[C@@H](CC(C)C)C(=O)N[C@@H](CCCNC(=N)N)C(N)=O [Compound 192, Ac-WNLV(homoR)IGLLR-NH2] (Ac-WNLV[hArg]IGLLR-NH2) | 1 |  |  |  |  | > 50 | 5.3 | 5.55 ± 0.36 | ≥ 50 | > 50 | ≥ 50 | improvement of binding affinity by homo-arginine substitution (PCSK9Δhelix [2]; Table 10, versus Compound 53): 14 fold
CC[C@H](C)[C@H](NC(=O)[C@H](CCCCNC(=N)N)NC(=O)[C@@H](NC(=O)[C@H](CC(C)C)NC(=O)[C@H](CC(N)=O)NC(=O)[C@H](Cc1c[nH]c2ccccc12)NC(=O)CNC(=O)[C@@H]1CCCN1C(=O)[C@H](Cc1ccccc1)NC(=O)[C@H](CO)NC(=O)[C@H](CCC(=O)O)NC(C)=O)C(C)C)C(=O)NCC(=O)N[C@@H](CC(C)C)C(=O)N[C@@H](CC(C)C)C(=O)N[C@@H](CCCNC(=N)N)C(N)=O [Compound 227] (Ac-ESFPGWNLV[hArg]IGLLR-NH2) |  |  |  |  |  | > 50 | 24 | 2.51 ± 0.11 | 2.5 | 23.2 ± 0.3 | ≥ 50 | lower inhibitory activity versus Compound 229 (PCSK9 [4]; Table 11): approximately 3 fold
Ac-TVATSAEEYLLWV-NH2 [Pep2-8-ctrl, reference compound] |  |  |  |  |  |  |  |  |  |  |  | effect on FXIa-mediated cleavage of the P′ helix of PCSK9-AAA [5]: did not prevent cleavage; effect on FXIa-mediated cleavage of the P′ helix of PCSK9-AAA ([5]; listed as control peptide): did not inhibit cleavage

— patent US11034725B2, “Compositions and methods for treating cardiovascular disease” (Genentech, Inc., priority 2016, dated 2021)
